From patent publication US10639287B2, “Compounds for the treatment of mitochondrial diseases” (UNIVERSITE PARIS-SUD, priority 2014, dated 2020)

Columns and labels:
[1] = tested on: mutated mip1 yeast strains; assay: Production of small colonies in mutated mip1 yeast strains; format: cell-based, Saccharomyces cerevisiae
Protocol: The rate of small cells in a population represents the cells not breathing due to rearrangements of the mtDNA and/or having lost their mtDNA.
From a pre-culture in selective medium (SC-TRP, 2% ethanol (v/v)) of the mutated mip1 strain, 2.10^5 cells/mL were seeded in 2 mL of rich YPD medium (1% Yeast Extract, 0.5% Bacto Peptone, 2% Glucose) in the presence of 32 μM clofilium tosylate or DMSO. The cells were then incubated at 28° C. for two cycles of 24 hours. The cells were then diluted to have about 200 to 250 cells per dish and spread on differential synthetic medium (SC-TRP, 0.3% glucose, 2% ethanol). The number of small colonies was calculated after 6 days of incubation at 28° C. (Baruffini, E., Lodi, T., Dallabona, C., Puglisi, A., Zeviani, M. and Ferrero, I. (2006) Genetic and Chemical rescue of the Saccharomyces cerevisiae phenotype induced by mitochondrial DNA polymerase mutations associated with progressive external ophthalmoplegia in humans. Hum. Mol. Genet., 15, 2846-2855).
The effect of the clofilium tosylate on the production of small colonies was measured in 8 recessive mip1 mutants:
an in 3 dominant mip1 mutants: • Y757C (mutated domain: polymerase) • K749R (mutated domain: polymerase) • E698G (mutated domain: polymerase)

[2] = tested on: wild-type Mip1 or mutated Mip1G651S yeast protein; assay: Amount of Mip1 proteins in mitochondria-enriched extracts (SDS/PAGE, western blot); format: cell-based, Saccharomyces cerevisiae; conditions: 32 μM vs DMSO
Protocol: The analysis of the effect of clofilium tosylate on the amount of wild-type or mutated Mip1 proteins was carried out on cell extracts enriched in mitochondria. In order to visualise the expression of the Mip1 and Mip1G651S proteins, the sequence encoding three HA epitopes was cloned in 3′ and in phase with the coding sequence of Mip1 and Mip1G651S.
The yeast cells were cultured in selective medium (SC-TRP, 2% ethanol) overnight. Then, the cells were seeded at an initial optical density (DO600) of 0.05 in 100 mL of YPE (1% Yeast Extract, 0.5% Bacto Peptone, 2% Ethanol) supplemented either by DMSO or by 32 μM clofilium tosylate at 28° C. with stirring until a DO600 between 3 and 4 was achieved. The cells were centrifuged at 3000 g for 5 min and washed with water. The isolation of the fraction enriched in mitochondria and protein extraction of this fraction were carried out according to the protocol described by Hoffman et al., 2009 (Hofmann, L., Saunier, R., Cossard, R., Esposito, M., Rinaldi, T. and Delahodde, A. (2009) A non-proteolytic proteasome activity controls organelle fission in yeast. J. Cell. Sci., 122, 3673-3682).
The protein extracts of the fractions enriched in mitochondria were analysed by SDS/PAGE gel electrophoresis (6% for the analysis of the proteins Mip1-HA and Mip1G651S-HA and 10% for the analysis of Cox2 mitochondrial proteins (encoded by mtDNA) and porin). […]

[3] = tested on: neuronal cybrids derived from a MELAS patient (m.3243A>G tRNA^Leu mutation); assay: Lactate production of MELAS neuronal cybrids; format: cell-based, human; conditions: 300 nM, 48 hours
Protocol: The increase in the lactate production is the result of a toxicity of the drug used, but also of a mitochondrial dysfunction (energy deficiency) present in MELAS syndrome.
Neuronal cybrid lines carrying the MELAS mutation and the parental control line were grown in sterile culture flasks and incubated at 37° C. with 5% CO2 in a medium composed of DMEM with 1.5 g/L glucose, 2 mM L-glutamine and supplemented with 10% foetal bovine serum as well as uridine (5 μg/ml) and pyruvate (10 μg/mL). The cells were harvested by trypsinisation in exponential phase and were used for subsequent biochemical or molecular mitochondrial analyses.
The MELAS neuronal cybrid line carrying the mutation seemingly in the homoplasmic state (i.e. reaching almost 100% MELAS mutation) and the SHSY-5Y parental control line were used for measurements of enzyme activities. […] These cell pellets were then analysed by spectrophotometry with measurement of the different mitochondrial biochemical activities, particularly the activity of citrate synthase and the activity of complex I of the respiratory chain. […]
The lactate concentration of the culture medium for neuronal cybrid and parental cells was determined by spectrophotometry using an enzymatic kit (Bohringer) on a Hitachi-Roche apparatus (Roche Diagnostics GmbH). […]

CCCCCCC[N+](CC)(CC)CCCCc1ccc(Cl)cc1.Cc1ccc(S(=O)(=O)[O-])cc1 [clofilium tosylate]
production of small colonies of the mutant mip1^G651S yeast strain ([1]; 32 μM vs DMSO): reduced the production of small colonies | production of cells not breathing (small colonies) in recessive and dominant mip1 mutants ([1]; 32 μM, irrespective of mutated MIP1 domain, except mutations producing more than 90% of small colonies): reduced the production of cells not breathing | amount of wild-type Mip1 or mutated Mip1G651S yeast protein [2]: increased | production of lactate [3]: without increasing
